Source: publication PMC7731115, “Cytotoxic, Apoptosis-Inducing Activities, and Molecular Docking of a New Sterol from Bamboo Shoot Skin Phyllostachys heterocycla var. pubescens” (Molecules, 2020)
Values joined by “and” are separate entries in the source; they are usually repeats but may differ in a detail not shown here. Equal entries are not always repeated. Where two headings read alike, the source gives them in different places.

Legend:
[1] = system: MCF-7; assay: MTT cytotoxic assay, MCF-7; assay type: cell-based, human
Protocol: (§1) Crude extracts, in addition to six sterol compounds, were screened for their cytotoxic activities against four cancerous cell lines: HepG2, Hela, A549, and MCF-7 and a noncancerous breast (MCF-10A) cell line to test their safety using the MTT assay (Table 2). […] After fractionation and isolation of the pure compounds, six compounds were tested for their cytotoxicity. […] Additionally, it was safe against the normal cells, with IC50 ≥ 50.
(§2) Crude extract, together with six of the identified sterols, were screened for their cytotoxic activities against liver HepG2, breast MCF-7, and normal cells (MCF-10A), as well. According to the standard cell culture work, each cell line was cultured in a proper complete medium. The treatment of cells was performed with the crude extract and then, with the identified compounds for a 48-h incubation, and Fluorouracil (5-FU) was used as the standard. Percent of cell viability was calculated by the following formula: % cell viability = (Mean absorbance of tested compound)/(Mean absorbance in control) × 100. Then, IC50 in µM was calculated using GraphPad Prism 7.

[2] = system: HepG2; assay: MTT cytotoxic assay, HepG2; assay type: cell-based; conditions: Homo sapiens, read-out: IC50 ± SD HepG2
Protocol: as §1, §2

[3] = system: MCF-7 cancer cells; assay: Annexin V/PI flow cytometric apoptosis/necrosis assessment; assay type: cell-based, human; conditions: MCF-7, treated at IC50 = 25.92 μM, 48 h
Text: (§3) Moreover, MCF-7 cancer cells after compound 1 treatment were subjected to DNA flow cytometry to analyse the cell cycle kinetics to determine the compound’s phase interference with the cell cycle. The study of the cell cycle is a crucial test showing the cell accumulation percentage in each growth phase with cytotoxic substances after treatment. […] Consequently, compound 1 induced pre-G1 and G2/M-phase cell cycle arrest and blocked the progression of MCF-7 cancer cells that deteriorated the genetic material.
(§4) Cell cycle analysis, as well as apoptotic assays, were performed in detail according to the previously described methods. Full methodologies of flow cytometric assays were provided in the Supplementary File.

[4] = system: caspase 8; assay: RT-PCR mRNA expression in MCF-7 cells, caspase 8; assay type: cell-based, human; conditions: MCF-7, treated at IC50 = 25.92 μM, 48 h
Protocol: (§5) The results are in accordance with the proposed apoptotic pathway for anticancer activity.
(§6) At the end of treatments, cells were collected, and total RNA was extracted using a RNeasy® Mini Kit (Qiagen, Hilden, Germany) according to the manufacturer’s instructions. cDNA synthesis was performed with 500 ng of RNA using the i-Script cDNA synthesis kit (Bio-Rad, Hercules, CA, USA) following the manufacturer’s instructions. Real-time (RT)-PCR reactions consisted of 25-µL Fluocycle®II SYBR® (Euroclone, Milan, Italy), 1.5 µL of both 10-µM forward and reverse primers, 3-µL cDNA, and 19 µL of H2O. All reactions were performed for 35 cycles using this temperature profile: 95 °C for 5 m (initial denaturation); 95 °C for […] (Denaturation), 55 °C for […] (Annealing), and 72 °C for […] (Extension). Then, The cycle threshold (Ct) values were collected and the relative folds of changes between all the samples. Primer used were listed in the Supplementary Files.

[5] = system: caspase 3; assay: RT-PCR mRNA expression in MCF-7 cells, caspase 3; assay type: cell-based, human; conditions: MCF-7, treated at IC50 = 25.92 μM, 48 h
Protocol: as §5, §6

[6] = system: Normal Cells MCF-10A; assay: MTT cytotoxic assay, normal cells MCF-10A; assay type: cell-based; conditions: Homo sapiens, pure compounds, 48-h incubation, n = 3, read-out: IC50 ± SD Normal Cells MCF-10A
Protocol: as §1, §2

[7] = system: caspase 9; assay: RT-PCR mRNA expression in MCF-7 cells, caspase 9; assay type: cell-based, human; conditions: MCF-7, treated at IC50 = 25.92 μM, 48 h
Protocol: as §5, §6

[8] = system: MCF-7 cancer cells; assay: DNA content flow cytometry cell cycle analysis; assay type: cell-based, human; conditions: MCF-7, treated at IC50 = 25.92 μM, 48 h
Text: as §3, §4

[9] = system: BAX; assay: RT-PCR mRNA expression in MCF-7 cells, BAX; assay type: cell-based, human; conditions: MCF-7, treated at IC50 = 25.92 μM, 48 h
Protocol: as §5, §6

[10] = system: antiapoptotic Bcl-2 gene; assay: RT-PCR mRNA expression in MCF-7 cells, Bcl-2; assay type: cell-based, human; conditions: MCF-7, treated at IC50 = 25.92 μM, 48 h
Protocol: as §5, §6

[11] = system: P53 gene; assay: RT-PCR mRNA expression in MCF-7 cells, P53; assay type: cell-based, human; conditions: MCF-7, treated at IC50 = 25.92 μM, 48 h
Protocol: as §5, §6

[12] = system: A549; assay: MTT cytotoxic assay, A549; assay type: cell-based; conditions: Homo sapiens, read-out: IC50 ± SD A549
Protocol: as §1, §2

[13] = system: Hela; assay: MTT cytotoxic assay, Hela; assay type: cell-based; conditions: Homo sapiens
Protocol: as §1, §2

[14] = Homo sapiens, MCF7, 48 h, pure compounds, MTT, 48-h incubation, n = 3, read-out: IC50 ± SD MCF-7
[15] = HepG2, pure compounds, MTT, 48-h incubation, n = 3
[16] = A549, pure compounds, MTT, 48-h incubation, n = 3
[17] = pure compounds, MTT, 48-h incubation, n = 3, read-out: IC50 ± SD Hela

`CCCCCC/C=C\C/C=C\CCCCCCC(=O)OC[C@H]1O[C@@H](O[C@H]2CCC3(C)C(=CCC4C3CCC3(C)C(C(C)CCC(CC)C(C)C)CCC43)C2)[C@H](O)[C@@H](O)[C@@H]1O` (stereo partly drawn) [Compound 1, (6’-O-octadeca-8″,11″-dienoyl)-sitosterol-3-O-β-D-glucoside] was tested, and the IC50 [1, 14] was 25.8 µM, the “LogIC50 (Figure 4 curve fit)” value ([1]; MCF-7, nonlinear regression dose-inhibition curve fit) was 1.412 and the IC50 ([1]; pure compounds, MTT, 48-h incubation, n = 3, read-out: IC50 ± SD MCF-7) was 25.8 ± 1.04 µM. For the same molecule, the IC50 [2, 15] was 27.5 ± 1.04 µM, the “apoptotic cell death, fold vs control” value [3] was 32.6 fold and the “cell death via necrosis, fold vs control” value [3] was 10.8 fold. For the same molecule, the “apoptotic cell death, total apoptosis” value ([3]; control 0.51%) was 16.63%, the “cell death via necrosis” value ([3]; control 0.86%) was 9.31% and the “caspase 8 mRNA level, fold change” value [4] was 1.9 fold and 1.9± 0.13 fold. The “caspase 3 mRNA level, fold change” value [5] was “≈ 5.01 fold and 5.01± 0.27 fold”, the IC50 [6] was ≥ 50 µM and the “caspase 9 mRNA level, fold change” value [7] was 5.44 fold and 5.44± 0.49 fold. The pre-G1 cell population ([8]; control 1.37%) was 25.94%, the G2/M cell population ([8]; control 7.46%) was 26.74% and the “cell population in S” value ([8]; control 34.26%) was 24.95%. The “BAX mRNA level, fold change” value [9] was 3.77 fold and 3.77± 0.37 fold, the “Bcl-2 mRNA level, fold change” value [10] was “≈ 0.81 fold and 0.81± 0.05 fold” and the “P53 gene mRNA level, fold change” value [11] was “≈ 3.55 fold and 3.55± 0.28 fold”.

`CC[C@H](CC[C@@H](C)[C@H]1CC[C@H]2[C@@H]3CCC4=CC(=O)CC[C@]4(C)[C@H]3CC[C@]12C)C(C)C` [Compound 2, stigmast-4-en-3-one] was tested, and the IC50 ([1]; Homo sapiens, MCF7, 48 h, read-out: IC50 ± SD MCF-7, pure compounds, MTT, 48-h incubation, n = 3) was ≥ 50 µM, the IC50 ([12]; A549, 48 h) was 45.6 ± 0.75 µM and the IC50 ([13]; 48 h, read-out: IC50 ± SD Hela) was 32.5 ± 0.89 µM. For the same molecule, the IC50 [6] was ≥ 50 µM.

In the case of `CCC(CC[C@@H](C)[C@H]1CC[C@H]2[C@@H]3CC(O)C4=CC(=O)CC[C@]4(C)[C@H]3CC[C@]12C)C(C)C` (stereo partly drawn) [Compound 3, 6-β-hydroxy-24-ethyl-cholest-4-en-3-one], the IC50 [1, 14] is reported as ≥ 50 µM, the IC50 [12, 16] is reported as 49.9 ± 1.03 µM and the IC50 [13, 17] is reported as ≥ 50 µM. The IC50 [6] was ≥ 50 µM.

For `CC[C@H](CC[C@@H](C)[C@H]1CC[C@H]2[C@@H]3CC=C4C[C@@H](O)CC[C@]4(C)[C@H]3CC[C@]12C)C(C)C` [Compound 5, β-sitosterol], the IC50 ([1]; Homo sapiens, MCF7, 48 h, read-out: IC50 ± SD MCF-7) was ≥ 50 µM, the IC50 ([2]; HepG2, 48 h) was ≥ 50 µM and the IC50 ([12]; A549, 48 h) was ≥ 50 µM. For the same molecule, the IC50 ([13]; 48 h, read-out: IC50 ± SD Hela) was 42.3 ± 1.02 µM and the IC50 [6] was ≥ 50 µM.

With `O=c1[nH]cc(F)c(=O)[nH]1` [Compound 5-FU, 5-fluorouracil, reference compound] the IC50 [1, 14] was 27 ± 0.76 µM, the IC50 [2, 15] was 15.8 ± 0.28 µM and the IC50 [12, 16] was 7.47 ± 0.43 µM. The IC50 [13, 17] was 13 ± 0.65 µM and the IC50 [6] was ≥ 50 µM.

`CCCCCCCCCCCCCCCC(=O)OCC1OC(OC2CCC3(C)C(=CCC4C3CCC3(C)C(C(C)CCC(CC)C(C)C)CCC43)C2)C(O)C(O)C1O` [Compound 6, (6’-O-palmitoyl)-sitosterol-3-O-β-D-glucoside] was tested, and the IC50 [1, 14] was ≥ 50 µM, the IC50 [2, 15] was 42.5 ± 1.71 µM and the IC50 [6] was ≥ 50 µM.

With `CCC(CCC(C)C1CCC2C3CC=C4CC(OC5OC(CO)C(O)C(O)C5O)CCC4(C)C3CCC12C)C(C)C` [Compound 7, β-sitosterol-3-O-β-D-glucoside] the IC50 [1, 14] was 38.1 ± 0.98 µM, the IC50 [2, 15] was ≥ 50 µM and the IC50 [6] was ≥ 50 µM.
